Source: patent publication US20010049357A1, “Use of Hsp27 as an anti-inflammatory agent” (priority 1999, published 2001)
Read-outs that look alike come from different tables or passages of the source.

Legend:
human MØ [1] = assay: IL-10 production by human MØ (ELISA of culture supernates); assay type: cell-based
human MØ [2] = assay: TNFα production by human MØ (ELISA of culture supernates); assay type: cell-based
MØ = MØ conversion (differentiation) into immature dendritic cells by IL-4 plus GM-CSF; assay type: cell-based; details: Hsp27 added to MØ cultures at the initiation of conversion
Text: In a preferred method for obtaining dendritic cells in vitro, isolated MØ are are first stimulated to undergo conversion (differentiation) into immature dendritic cells, and then stimulated to mature into fully active or competent dendritic cells. Conversion can be stimulated or promoted in vitro by any effective treatment. For example, conversion can be promoted by treating the MØ with an effective amount of IL-4 and an effective amount of GM-CSF, in accordance with conventional techniques. Typically, the IL-4 and GM-CSF treatment is for approximately 3-4 days. One indication of conversion is expression of CD1a. For guidance concerning in vitro conversion of MØ to immature dendritic cells, see, e.g., Chapius et al., 1997, Eur. J. Immunol. 27:431-441.
(§1) Hsp27 added to MØ cultures at the initiation of conversion inhibited differentiation of MØ to dendritic cells mediated or promoted by the combination of IL-4 plus GM-CSF.

immature dendritic cells = assay: Maturation of immature dendritic cells (CD83 expression); assay type: cell-based
Description: Preferably, the MØ are not brought into contact with Hsp27 before their conversion into immature dendritic cells, because Hsp27 inhibits the conversion. After conversion, however, Hsp27 acts as a potent promoter of maturation by the immature dendritic cells. […] Dendritic cell maturation is detectable as early as 24 hours after initiation of Hsp27 treatment. Preferably, however, Hsp27-induced maturation is allowed to proceed for 48 to 72 hours. One useful indication of dendritic cell maturation is expression of CD83.
as §1

Normal control monocytes = assay type: cell-based, human
[3] = system: IL-10 mRNA in human monocytes; assay: RNAse protection assay of IL-10 mRNA in human monocytes; assay type: cell-based
MAPKAPKinase-2 = assay type: cell-based, human
p38 MAPK = assay: Immunoblot for activation (phosphorylation) of p38 MAPK in human MØ; assay type: cell-based; details: after addition of Hsp 27 2 μg/ml
Description: (§2) Monocytes (1.5×10^6 cells) were cultured in serum free medium for 2 hrs and then stimulated with Hsp 27 (2 μg/ml) for different time periods (1 min to 3 hrs). Western blot analysis was performed, essentially as described previously (29). Briefly, cells were lysed using a buffer consisting of 1% Nonidet P-40, 50 mM HEPES (pH 7.2), 100 mM NaCl, 2 mM EDTA, 1 mM pyrophosphate, 2 mM Na3VO4, 10 mM NaF, 1 mM PMSF, 10 μg/ml leupeptin and 10 μg/ml aprotinin. Postnuclear supernates were harvested after centrifugation of the lysate for 15 min at 14,000 g at 4° C. Equal amounts of postnuclear lysates were boiled for 5 min in the presence of SDS sample buffer (reducing) and subjected to SDS-12% PAGE and then transferred to nitrocellulose membrane (Millipore Corp, Bedford, Mass.) in transfer buffer [25 mM Tris, 192 mM glycine, pH 8.3, 20% (V/V) methanol]. Membranes were first rinsed in TTBS (TBS with 0.1% Tween 20) and then blocked for 1 hr at room temperature in TTBS-5% W/V nonfat dry milk. The membrane was then incubated overnight at 4° C. with antiphospho-p38 MAPK antibody (rabbit polyclonal; New England Biolab) (1:1000 dilution in TTBS-1% BSA). Antibody-antigen complexes were detected with the aid of HRP-conjugated anti-rabbit secondary antibody (1:2000 dilution) (New England Biolab) followed by detection of the bands with ECL reagent (NEN Life Science Products). […]
(§3) To assess the activation (phosphorylation) of three different mitogen-activated protein kinases (MAPK)—p38, p44/42 (Erk 1/2) and p46/54 (SAPK/JNK-1/2) after Hsp 27 addition, we stimulated human MØ at different time points and measured activated p38, Erk 1/2 and JNK 1/2 using the respective antibodies against the phosphorylated forms of the MAPKs. […]

p44/42 (Erk 1/2) = assay: Immunoblot for activation (phosphorylation) of Erk 1/2 in human MØ; assay type: cell-based; details: after addition of Hsp 27 2 μg/ml
Description: Monocytes (1.5×10^6 cells) were cultured in serum free medium for 2 hrs and then stimulated with Hsp 27 (2 μg/ml) for different time periods (1 min to 3 hrs). Western blot analysis was performed, essentially as described previously (29). Briefly, cells were lysed using a buffer consisting of 1% Nonidet P-40, 50 mM HEPES (pH 7.2), 100 mM NaCl, 2 mM EDTA, 1 mM pyrophosphate, 2 mM Na3VO4, 10 mM NaF, 1 mM PMSF, 10 μg/ml leupeptin and 10 μg/ml aprotinin. Postnuclear supernates were harvested after centrifugation of the lysate for 15 min at 14,000 g at 4° C. […] Antibody-antigen complexes were detected with the aid of HRP-conjugated anti-rabbit secondary antibody (1:2000 dilution) (New England Biolab) followed by detection of the bands with ECL reagent (NEN Life Science Products). […]
as §3

p46/54 (SAPK/JNK-1/2) = assay: Immunoblot for activation (phosphorylation) of SAPK/JNK in human MØ; assay type: cell-based
Description: as §2, §3

[4] = after addition of Hsp 27 2 μg/ml

COc1cccc(-c2cc(=O)c3ccccc3o2)c1N [PD98059, reference compound]
effect on Hsp 27 induced MØ IL-10 production (human MØ [1]): did not have any inhibitory effect
TNFα induced by Hsp 27 blocked (human MØ [2]; inhibitor 10 μM for 2 hrs before Hsp 27 2 μg/ml): 68%

C[S+]([O-])c1ccc(-c2nc(-c3ccncc3)c(-c3ccc(F)cc3)[nH]2)cc1 (centres unmarked) [SB203580, reference compound]
inhibition of Hsp 27 induced MØ IL-10 production (human MØ [1]): approximately 80%
TNFα induced by Hsp 27 blocked (human MØ [2]): 90%

TNFα
increase in IL-10 levels (human MØ [1]; exogenous addition of 100 U/ml TNFα): 1.5 fold

heat shock protein-27 [Hsp 27]
effect on differentiation of MØ to dendritic cells promoted by IL-4 plus GM-CSF (MØ): inhibited
effect on maturation of immature DC to mature antigen-presenting DC (immature dendritic cells; Hsp27 added after initial differentiation into DC (day 4 of induction)): strongly promoted
time at which dendritic cell maturation is detectable (immature dendritic cells; after initiation of Hsp27 treatment): ≥ 24 h
IL-10(pg/10^6 cells/ml) x ± SEM (human MØ [1]): 5267 ± 610 pg/10^6 cells/ml
MØ IL-10 production (human MØ [1]): approximately 3400 pg/ml
increase in IL-10 as compared to SEB+MDP (human MØ [1]): approximately 3 fold
increase in IL-10 relative to SEB+MDP (human MØ [1]): 2.5-3.5
optimum concentration for Hsp 27 induced MØ IL-10 production (human MØ [1]; dose-dependent, FIG. 1B): 1 to 5 µg/mL
MØ TNFα production (human MØ [2]; 16-18 hrs): 483 ± 74 pg/mL
IL-12(pg/10^6 cells/ml) x ± SEM (Normal control monocytes): 3428 ± 1102 pg/10^6 cells/ml
increase in IL-12 as compared to SEB+MDP (Normal control monocytes): approximately 3 fold
increase in IL-12 relative to SEB+MDP (Normal control monocytes): 2.5-3.5
IL-10 mRNA levels relative to control MDP+SEB induced levels [3]: 3.2 fold
increase in IL-10 mRNA levels compared to only adherence stimulated MØ ([3]; Hsp 27 2 μg/ml, 8-9 hrs): ~7.2 fold
MAPKAPKinase-2 activity versus adherence stimulated untreated MØ lysate (MAPKAPKinase-2): significantly increased
persistence of p38 MAPK activation (p38 MAPK): up to 180 min
time at which p38 MAPK phosphorylation was clearly increased (p38 MAPK): 20 min
time of maximal stimulation of p38 MAPK (p38 MAPK): 40 min
time at which Erk 1/2 phosphorylation was clearly increased (p44/42 (Erk 1/2)): 20 min
time of maximal stimulation of Erk 1/2 (p44/42 (Erk 1/2)): 40 min
time at which JNK 1/2 phosphorylation was clearly increased (p46/54 (SAPK/JNK-1/2); [4]): 20 min
time of maximal stimulation of JNK 1/2 (p46/54 (SAPK/JNK-1/2); [4]): 40 min
induction of P-p54 JNK (p46/54 (SAPK/JNK-1/2); compared to activation of p38 and Erk): only minimal

polymyxin B [reference compound]
effect on Hsp 27 induced MØ IL-10 production (human MØ [1]; polymyxin B 200 U/ml together with Hsp 27 2 μg/ml): could not inhibit
